The values that follow come from patent US12507703B2, “Methods, devices and compositions for preserving human milk” (The Trustees of Princeton University, priority 2023, dated 2025).

Where “and” joins values, the source holds several entries; their conditions need not be identical. Identical values can stand only once. Like-named read-outs stand apart in the source and are kept apart here.

For one assay, the system named is glycerol. The assay can be described thus: Glycerol-Glo assay of glycerol (byproduct of fat breakdown) in stored human milk. It is filed as biochemical. On the procedure: Eight human milk samples were tested to determine if glycerol, a byproduct of fat breakdown, accumulated after storage. Human milk samples were collected from the same donor anywhere between 1 month and 7 months after birth, frozen, and then thawed for testing. The samples were frozen on the same day as collection. […] The samples were thawed, and the presence of glycerol was detected by a glycerol-dependent, light-producing reaction presented as a measure of bioluminescence using the Glycerol-Glo™ Assay (Promega; catalog #: J3150) according to the manufacturer's instructions. A buffer with either 0 μM glycerol or 100 μM glycerol, alongside organic whole milk (cow) was used as a control. Glycerol content (bioluminescence) was measured using a BioTek Synergy Neo2 Hybrid Multimode Reader (Agilent; catalog #: BTNE02).

The next assay concerns lipase. The assay can be described thus: Lipase/lipolysis assay (EnzChek Lipase Substrate, quenched BODIPY-fatty acid conjugate) on stored human milk. To be noted: for Lipolysis: 5 ounces unpasteurized human milk, frozen −20° C. 1 week.
Assay [1] is described as follows: Total Antioxidant Capacity Assay Kit on stored human milk.
Procedure: The compounds in Table 7 were added to fresh human milk and the samples were stored for 1 week at −20° C. […] Additionally, select compounds were tested for total Antioxidant capacity using the Total Antioxidant Capacity: Total Antioxidant Capacity Assay Kit (Abcam; catalog #: ab65329) in accordance with the manufacturer's instructions and presented as a relative ratio compared to fresh human milk. […] Lipase was considered inhibited with a RFU <400, glycerol was considered inhibited with an RLU <150,000, and total antioxidant capacity considered maintained with a ratio >0.75. Results presented in Table 7 represent a dose of 500 μg/mL for vitamin C, E and the carbonate/bicarbonates. All other compounds are at 20 mg/mL. Additionally, all compounds were tested for lipase and antioxidant capacity at multiple dilutions.
Setting [2] is: Table 7, 500 μg/mL, relative ratio compared to fresh human milk, maintained if >0.75.

Turning to `O=C(O)[C@H]1O[C@H](O[C@@H]2[C@H](O)[C@@H](O)[C@@H](O[C@@H]3[C@H](O)[C@@H](O)C(O)O[C@@H]3C(=O)O)O[C@@H]2C(=O)O)[C@H](O)[C@@H](O)[C@H]1O` (some centres unmarked) [Trigalacturonic acid], the “Glycerol (RLU)” value in the assay on glycerol came out at 61363 RLU. For the same molecule, the “Lipase (RFU)” value in the assay on lipase was 352.972 RFU.

On to Polygalacturonic acid, for which, in the assay on glycerol, the “Glycerol (RLU)” value is 120477 RLU. Besides, the “Lipase (RFU)” value with lipase is listed as 398.125 RFU. As for tocopherol [Vitamin E], the “Total Antioxidant Capacity” value in assay [1] (setting [2]) is recorded as 2. Regarding Gum arabic, in the assay with glycerol, the “Glycerol (RLU)” value turned out to be 329275 RLU. In addition, the “Lipase (RFU)” value with lipase is on record as 744.000 RFU. Further, the “Total Antioxidant Capacity” value in assay [1] is 0.64.

For the molecule Triton X-100 [reference compound], the “Glycerol (RLU)” value in the assay on glycerol amounted to 145670 RLU. The “Lipase (RFU)” value in the assay on lipase came to 370.282 RFU. In the case of Pectin, the figures for the Lipolysis with lipase (Subject 1), in the assay on lipase (Subject 2) and in the assay with lipase (Subject 3) were 209, 525 and 280, respectively. Besides, the “Total Antioxidant Capacity” value is reported as 0.204 in assay [1] (Subject 1, 5 ounces unpasteurized human milk, frozen −20° C. 1 week, measure of absorbance); 0.264 in assay [1] (Subject 2, 5 ounces unpasteurized human milk, frozen −20° C. 1 week, measure of absorbance); 0.364 in assay [1] (Subject 3, 5 ounces unpasteurized human milk, frozen −20° C. 1 week, measure of absorbance).

Take `O=C(O)[C@H]1O[C@H](O[C@@H]2[C@H](O)[C@@H](O)[C@@H](O)O[C@@H]2C(=O)O)[C@H](O)[C@@H](O)[C@H]1O` [Digalacturonic acid]: the “Glycerol (RLU)” value in the assay with glycerol came to 61741 RLU. For the same molecule, the “Lipase (RFU)” value in the assay on lipase came out at 264.075 RFU. As to Locust bean gum, the “Glycerol (RLU)” value with glycerol is given as 435487 RLU. The “Lipase (RFU)” value with lipase is 1054.203 RFU. Moreover, in assay [1], the “Total Antioxidant Capacity” value came out at 0.55.

Turning to `O=C1O[C@H]([C@@H](O)CO)C(O)=C1O` [Vitamin C, ascorbic acid], the “Total Antioxidant Capacity” value in assay [1] (setting [2]) stood at 2. Consider Guar gum, for which, in the assay with glycerol, the “Glycerol (RLU)” value worked out at 744165 RLU. For the same molecule, the “Total Antioxidant Capacity” value in assay [1] was found to be 0.59. `O.O=C[C@H](O)[C@@H](O)[C@@H](O)[C@H](O)C(=O)O` [D-(+)-Galacturonic acid monohydrate]: the “Glycerol (RLU)” value with glycerol was found to be 71322 RLU. In addition, the “Lipase (RFU)” value in the assay with lipase stood at 324.895 RFU. On to Lambda carageenan, for which the “Glycerol (RLU)” value in the assay with glycerol is 140894 RLU. The “Lipase (RFU)” value in the assay on lipase amounted to 432.920 RFU. The matching figures for “Poly-D-galacturonic acid methyl ester (apple)”: 643757 RLU and 611.342 RFU. On to Tween 80, for which, in the assay on glycerol, the “Effect on glycerol production (in words)” value is “reduced lipase and glycerol production”; the “Glycerol (RLU)” value is recorded as 113807 RLU. In the assay on lipase, the “Effect on lipase / lipolysis (in words)” value is “reduced lipase and glycerol production”; the “Hit in lipase inhibition screen (in words)” value is recorded as “significantly inhibited lipase activity”. Regarding Perfected guar gum, the “Glycerol (RLU)” value with glycerol is 838585 RLU. Besides, in the assay on lipase, the “Lipase (RFU)” value is listed as 1061.697 RFU. In assay [1], the “Total Antioxidant Capacity” value is recorded as 0.72. Regarding “Poly-D-galacturonic acid methyl ester (citrus)”, the “Glycerol (RLU)” value in the assay with glycerol is recorded as 122743 RLU. Further, in the assay on lipase, the “Lipase (RFU)” value is listed as 320.660 RFU.

Consider `COC(=O)c1cccnc1` [Methyl nicotinate], for which the “Lipase (RFU)” value in the assay with lipase is 1069.07 RFU and 773.2703 RFU.

As to `COc1cc(CC(=O)C(=O)O)ccc1O` [Vanilpyruvic acid], in the assay with lipase, the “Lipase (RFU)” value came to 1086.418 RFU. As to `O=C(O)c1ccc(O)c(O)c1` [Protocatechuic acid], the “Lipase (RFU)” value in the assay with lipase was 981.5941 RFU and 972.5566 RFU. Lupeol acetate: the “Lipase (RFU)” value with lipase is on record as 966.2407 RFU. For the molecule `CC(CC(=O)CC(C)(O)C1CC(=O)C2(C)C3=C(C(=O)CC12C)C1(C)CCC(=O)C(C)(C)C1CC3O)C(=O)O` (centres unmarked) [Ganoderic acid N], the “Lipase (RFU)” value in the assay with lipase worked out at 866.924 RFU. With `C=C[C@@H](O)C#CC#C[C@@H](O)/C=C\CCCCCCC` [Falcarindiol], the “Lipase (RFU)” value with lipase came out at 827.8455 RFU.

Take `O.O=P([O-])([O-])OC1C(OP(=O)([O-])[O-])C(OP(=O)([O-])[O-])C(OP(=O)([O-])[O-])C(OP(=O)([O-])[O-])C1OP(=O)([O-])[O-].[Na+].[Na+].[Na+].[Na+].[Na+].[Na+].[Na+].[Na+].[Na+].[Na+].[Na+].[Na+]` (centres unmarked) [Phytic acid (dodecasodium hydrate)]: the “Lipase (RFU)” value in the assay on lipase is 1018.084 RFU and 920.5233 RFU.

`OC[C@@H](O)[C@@H](O)CO` [meso-Erythritol]: the “Lipase (RFU)” value with lipase came to 838.849 RFU. As for `N[C@@H](CC(=O)O)C(=O)O.[Ca]` [Aspartic acid (calcium)], the “Lipase (RFU)” value in the assay on lipase ((calcium)) was 952.0587 RFU and 1027.013 RFU. For `N#CC[C@H](N)C(=O)O` [β-cyano-L-Alanine], in the assay on lipase, the “Lipase (RFU)” value worked out at 869.3786 RFU. As for `NCCCC[C@H](N)C(=O)O` [L-Lysine], the “Lipase (RFU)” value in the assay on lipase was 909.5913 RFU and 1084.77 RFU and 881.5409 RFU and 1310.906 RFU. `COc1cc(O)c2c(=O)c(-c3ccc(O)cc3)coc2c1` [Prunetin]: in the assay on lipase, the “Lipase (RFU)” value is listed as 865.5495 RFU.

`CC(C)=CC(=O)C[C@H](C)c1ccc(C)cc1` [ar-Turmerone]: in the assay with lipase, the “Lipase (RFU)” value came out at 1106.99 RFU. As for `O=c1cc(-c2ccccc2)oc2cc(O)cc(O[C@@H]3O[C@H](CO)[C@@H](O)[C@H](O)[C@H]3O)c12` [Toringin], the “Lipase (RFU)” value in the assay with lipase is 1102.623 RFU.
